pIC50: −log10 of the molar value. Counter-ions that a name gives are not always drawn. Like-named read-outs stand apart in the source and are kept apart here. Marks after values point to notes of the source that are not given here.

In assay [1] the target is T1, MMP-12 (Homo sapiens, UniProt P39900). As to conditions: literature; cited from earlier work.
The target of assay [2] is T2, MMP-13 catalytic domain (MMP-13CD) (Homo sapiens, UniProt P45452).
T2 construct: The catalytic domain of the MMP-13 enzyme, namely matrix metalloproteinase-13 catalytic domain (“MMP-13CD”)
As to the kind of experiment: Fluorigenic peptide-1 substrate based assay, MMP-13CD, with/without AcNHOH. It is filed as biochemical. The settings on record: for IC50 Ratio (±): IC50 with AcNHOH divided by IC50 without; for pIC50: FP1 substrate.
Description: The catalytic domain of the MMP-13 enzyme, namely matrix metalloproteinase-13 catalytic domain (“MMP-13CD”), rather than the corresponding full-length enzyme, MMP-13 was used in such assay.
50 mM HEPES buffer (pH 7.0)
2% DMSO (with or without inhibitor test compound)
1. Dispensed 2 μL inhibitor test sample (in 100% DMSO) into well.
2. Added 88 μL assay mixture and mixed well, avoiding bubbles.
3. Initiated reactions with 10 μL of 5 nM MMP-13CD; mixed well, avoiding bubbles.
4. Immediately measured the kinetics of the reactions at room temperature.
Alternatively, an endpoint read can also be used to determine reaction velocity provided the initial fluorescence of the solution, as recorded before addition of enzyme, is subtracted from the final fluorescence of the reaction mixture.

The target in the next assay is T3, MMP-2 (Homo sapiens, UniProt P08253).
T3 sequence (P08253 110-660): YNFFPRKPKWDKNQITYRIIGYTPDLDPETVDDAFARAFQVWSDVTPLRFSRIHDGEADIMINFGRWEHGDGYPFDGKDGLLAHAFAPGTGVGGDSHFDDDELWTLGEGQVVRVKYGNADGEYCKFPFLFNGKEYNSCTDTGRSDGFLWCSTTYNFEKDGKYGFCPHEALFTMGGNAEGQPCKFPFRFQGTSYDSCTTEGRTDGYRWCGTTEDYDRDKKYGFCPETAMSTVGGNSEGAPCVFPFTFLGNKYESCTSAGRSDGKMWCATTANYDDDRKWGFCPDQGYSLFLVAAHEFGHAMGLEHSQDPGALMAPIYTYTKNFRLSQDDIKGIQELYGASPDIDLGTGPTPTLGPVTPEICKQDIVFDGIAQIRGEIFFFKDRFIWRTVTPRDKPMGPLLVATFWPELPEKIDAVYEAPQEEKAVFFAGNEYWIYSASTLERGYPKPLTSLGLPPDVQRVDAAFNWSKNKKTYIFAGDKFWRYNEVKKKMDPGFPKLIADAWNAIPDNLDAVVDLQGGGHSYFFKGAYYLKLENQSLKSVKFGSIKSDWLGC
As to the kind of experiment: TPL (thiopeptolide) assay, MMP-2. The class given is biochemical. The text has this:
(§1) The assays that can be used to evaluate the biological activity of various compounds for inhibiting MMPs are well-known and routinely used by those skilled in the art. They measure the amount by which a test compound reduces the hydrolysis of a thiopeptolide substrate caused by a matrix metalloproteinase enzyme. Such assays are described in detail by Ye et al., in Biochemistry, 1992;31(45): 11231-11235, which is incorporated herein by reference.
(§2) Thiopeptolide substrates show virtually no decomposition or hydrolysis in the absence of a matrix metalloproteinase enzyme. A typical thiopeptolide substrate commonly utilized for assays is Ac-Pro-Leu-Gly-thioester-Leu-Leu-Gly-OEt. A 100 μL assay mixture will contain 50 mM of 2-morpholinoethane sulfonic acid monohydrate (MES, pH 6.0) 10 mM CaCl2, 100 μM thiopeptolide substrate, and 1 mM 5,5′-dithio-bis-(2-nitro-benzoic acid) (DTNB). The thiopeptolide substrate concentration is varied from 10 to 800 μM to obtain Km and Kcat values. The change in absorbance at […] is monitored on a Thermo Max microplate reader (Molecular Devices, Menlo Park, Calif.) at room temperature (22° C.). The calculation of the amount of hydrolysis of the thiopeptolide substrate is based on E412=13600 m^−1 cm^−1 for the DTNB-derived product 3-carboxy-4-nitrothiophenoxide. Assays are carried out with and without matrix metalloproteinase inhibitor compounds, and the amount of hydrolysis is compared for a determination of inhibitory activity of the test compounds.

Another assay addresses MMP-14 (Homo sapiens, UniProt P50281). As to the kind of experiment: TPL (thiopeptolide) assay, MMP-14. It is filed as biochemical.
Source text: as §1, §2

A further assay has as its target MMP-9 (Homo sapiens, UniProt P14780). As to the kind of experiment: TPL (thiopeptolide) assay, MMP-9. The class given is biochemical.
Source text: as §1, §2

A further assay has as its target T4, MMP-1 (Homo sapiens, UniProt P03956).
T4 sequence (P03956 100-469): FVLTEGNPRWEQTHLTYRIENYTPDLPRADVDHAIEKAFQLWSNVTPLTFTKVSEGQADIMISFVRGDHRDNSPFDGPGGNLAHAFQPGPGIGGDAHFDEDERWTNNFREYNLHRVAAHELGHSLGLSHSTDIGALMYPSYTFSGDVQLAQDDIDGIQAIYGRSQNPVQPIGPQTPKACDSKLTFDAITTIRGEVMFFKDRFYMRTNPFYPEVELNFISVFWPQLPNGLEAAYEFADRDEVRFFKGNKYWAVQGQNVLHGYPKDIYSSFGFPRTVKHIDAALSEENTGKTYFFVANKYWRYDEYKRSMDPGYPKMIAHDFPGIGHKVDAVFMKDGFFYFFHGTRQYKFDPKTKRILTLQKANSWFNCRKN
The experiment in a line: TPL (thiopeptolide) assay, MMP-1. It is filed as biochemical.
Source text: as §1, §2

The next assay has as its target MMP-3 (Homo sapiens, UniProt P08254). The experiment in a line: TPL (thiopeptolide) assay, MMP-3. The class given is biochemical.
Source text: as §1, §2

Assay [3] concerns the target T1, MMP-12. As to the kind of experiment: TPL (thiopeptolide) assay, MMP-12 (without and with AH). It is filed as biochemical.
Source text: as §1, §2
Although ligand size is not critical, a bulky ligand will block more binding sites of the MMP than a smaller ligand, and may thus prevent potential inhibitors that bind close to, but not at, the functional metal cation from being identified. Suitable ligands are therefore low molecular weight molecules, e.g. acetohydroxamic acid (CH3CONHOH) whose use is preferred.

In another assay the target is MMP-13 (Homo sapiens, UniProt P45452). The experiment in a line: TPL (thiopeptolide) assay, MMP-13 (without and with AH). It is filed as biochemical.
The target of another assay is T5, MMP-7 (Homo sapiens, UniProt P09237).
T5 sequence (P09237 95-267): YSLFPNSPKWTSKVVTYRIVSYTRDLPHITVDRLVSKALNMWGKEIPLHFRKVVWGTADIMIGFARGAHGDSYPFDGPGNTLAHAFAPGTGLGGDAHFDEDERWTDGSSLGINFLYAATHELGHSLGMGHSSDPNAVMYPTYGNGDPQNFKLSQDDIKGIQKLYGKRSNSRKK
As to the kind of experiment: TPL (thiopeptolide) assay, MMP-7. It is filed as biochemical.
Source text: as §1
as §2, with “Assays are carried out with and without matrix metalloproteinase inhibitor compounds, and the amount of hydrolysis is compared for a determination of inhibitory activity of the test compounds.” left out

A further assay concerns the target MMP-8 (Homo sapiens, UniProt P22894). The experiment in a line: TPL (thiopeptolide) assay, MMP-8. The class given is biochemical.
Source text: as §1
as §2, with “Assays are carried out with and without matrix metalloproteinase inhibitor compounds, and the amount of hydrolysis is compared for a determination of inhibitory activity of the test compounds.” left out

The mark [4] stands for this setting: TPL assay, without AH, read-out: IC50 MMP-12.
[5] abbreviates: TPL assay, without AH, read-out: IC50 MMP-13.
The mark [6] stands for this setting: in presence of acetohydroxamic acid (+AH), read-out: IC50 MMP12 (+AH).

MMP-3, sequence (P08254 100-477): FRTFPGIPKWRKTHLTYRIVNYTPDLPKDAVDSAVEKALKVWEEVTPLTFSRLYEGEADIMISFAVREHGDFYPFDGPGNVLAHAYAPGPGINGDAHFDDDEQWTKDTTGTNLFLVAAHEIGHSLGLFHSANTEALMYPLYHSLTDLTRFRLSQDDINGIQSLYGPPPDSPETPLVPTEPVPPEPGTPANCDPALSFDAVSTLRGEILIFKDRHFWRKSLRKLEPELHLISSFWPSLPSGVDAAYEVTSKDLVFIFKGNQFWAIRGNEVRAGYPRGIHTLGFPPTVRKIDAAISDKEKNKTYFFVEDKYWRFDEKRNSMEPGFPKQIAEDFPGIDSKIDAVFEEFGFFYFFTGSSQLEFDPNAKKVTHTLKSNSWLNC
T1 sequence (P39900 106-470): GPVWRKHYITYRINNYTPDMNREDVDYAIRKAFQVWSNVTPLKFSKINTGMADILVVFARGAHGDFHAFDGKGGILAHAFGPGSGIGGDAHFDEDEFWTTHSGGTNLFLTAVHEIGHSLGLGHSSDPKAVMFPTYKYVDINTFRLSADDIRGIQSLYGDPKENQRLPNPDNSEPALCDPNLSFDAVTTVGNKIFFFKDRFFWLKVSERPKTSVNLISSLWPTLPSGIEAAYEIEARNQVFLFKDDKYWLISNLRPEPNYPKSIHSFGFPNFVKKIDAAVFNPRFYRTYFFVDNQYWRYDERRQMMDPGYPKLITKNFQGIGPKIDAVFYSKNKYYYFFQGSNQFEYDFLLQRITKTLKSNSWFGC
MMP-9, sequence (P14780 94-707): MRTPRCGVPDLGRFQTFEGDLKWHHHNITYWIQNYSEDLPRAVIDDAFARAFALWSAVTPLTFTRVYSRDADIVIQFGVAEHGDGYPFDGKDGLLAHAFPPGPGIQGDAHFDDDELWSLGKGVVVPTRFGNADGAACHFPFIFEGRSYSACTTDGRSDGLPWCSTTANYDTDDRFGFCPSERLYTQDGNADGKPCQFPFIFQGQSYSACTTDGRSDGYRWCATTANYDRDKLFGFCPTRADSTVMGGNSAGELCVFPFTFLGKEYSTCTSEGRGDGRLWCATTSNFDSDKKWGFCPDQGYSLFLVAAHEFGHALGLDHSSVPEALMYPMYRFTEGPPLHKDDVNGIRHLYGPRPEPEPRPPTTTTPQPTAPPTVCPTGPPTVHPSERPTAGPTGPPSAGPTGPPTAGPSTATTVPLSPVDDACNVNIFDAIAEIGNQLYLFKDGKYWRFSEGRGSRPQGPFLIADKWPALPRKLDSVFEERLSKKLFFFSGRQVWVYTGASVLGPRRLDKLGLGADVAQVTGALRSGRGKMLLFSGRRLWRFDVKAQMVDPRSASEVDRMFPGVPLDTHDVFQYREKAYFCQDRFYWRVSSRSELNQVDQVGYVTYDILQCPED
MMP-8, sequence (P22894 101-467): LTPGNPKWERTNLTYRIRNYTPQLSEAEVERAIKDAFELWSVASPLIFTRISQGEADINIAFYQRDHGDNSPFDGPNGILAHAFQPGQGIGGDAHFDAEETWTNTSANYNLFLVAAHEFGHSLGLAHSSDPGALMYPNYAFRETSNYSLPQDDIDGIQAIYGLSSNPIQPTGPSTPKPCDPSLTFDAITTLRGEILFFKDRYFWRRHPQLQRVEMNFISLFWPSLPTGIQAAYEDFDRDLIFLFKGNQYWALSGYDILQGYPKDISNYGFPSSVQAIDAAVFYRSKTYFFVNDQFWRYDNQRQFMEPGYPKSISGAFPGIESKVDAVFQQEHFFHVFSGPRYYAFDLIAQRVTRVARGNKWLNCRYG

For the compound `COc1ccc(S(=O)(=O)N(Cc2cccnc2)[C@@H](C(=O)NO)C(C)C)cc1` [CGS27023A], the pIC50 at MMP-12 [1] was 8.70.
In the case of `Nc1ccc(-c2ccc(S(N)(=O)=O)cc2)cc1` [Entry 1], the “IC50 Ratio (±)” value in assay [2] was 0.47^a.
As to `NS(=O)(=O)c1ccc(-c2ccc([N+](=O)O)cc2)cc1` [Entry 2], the “IC50 Ratio (±)” value in assay [2] was determined as 0.04.
In the case of `COc1ccc(NC(=O)Nc2ccc3nc(C)cc(N)c3c2)cc1` [Entry 3], in [2], the “IC50 Ratio (±)” value was found to be 0.56.
Still for that read-out and setting: as for `Cc1cc(O)nc(SCc2ccc(Cl)cc2)n1` [Entry 4], the figure is 0.07^a; as for `Cc1c(-c2ccc(-n3ccnc3)cc2)[nH][nH]c1=O` [Entry 5], 1.16; as for `CCOC(=O)/C=C/c1ccc(-n2ccnc2)cc1` [Entry 6], 0.82.
Regarding `COc1ccc(C(=O)NCc2cccnc2)cc1C(=O)NCc1cccnc1` [Entry 7], the “IC50 Ratio (±)” value in assay [2] was found to be 0.41.
`O=C(NC(=S)NCc1cc(-c2ccccc2)no1)c1ccccc1` [Entry 10]: the pIC50 in [2] (0 mM AcNHOH, read-out: Without AcNHOH IC50) is 5.64; in [2] (15 mM AcNHOH (1 Kd), read-out: With AcNHOH IC50), 6.70. Besides, the “IC50 Ratio (±)” value in assay [2] turned out to be 0.08.
As for `COc1ccc(CC#Cc2ccc3ncn(Cc4ccc(C(=O)O)cc4)c(=O)c3c2)cc1` [Example 1, 4-{6-[3-(4-Methoxy-phenyl)-prop-1-ynyl]-4-oxo-4H-quinazolin-3-ylmethyl}-benzoic acid], the pIC50 at MMP-2 (read-out: IC50 MMP-2) is less than 4.00; on MMP-14 (read-out: IC50 MMP-14) it was less than 4.00; on MMP-9 (read-out: IC50 MMP-9), less than 4.52; on MMP-1 (read-out: IC50 MMP-1), less than 4.00; at MMP-3 (read-out: IC50 MMP-3) it was 6.66; on MMP-12 [3] (setting [4]), less than 4.52.
For `COc1ccc(CC#Cc2ccc3c(c2)c(=O)n(Cc2ccc(C(=O)O)cc2)c(=O)n3C)cc1` [Example 2, 4-{6-[3-(4-Methoxy-phenyl)-prop-1-ynyl]-1-methyl-2,4-dioxo-1,4-dihydro-2H-quinazolin-3-ylmethyl}-benzoic acid], the pIC50 on MMP-2 (read-out: IC50 MMP-2) is less than 4.00; on MMP-14 (read-out: IC50 MMP-14) it was less than 4.00; on MMP-9 (read-out: IC50 MMP-9), less than 4.52; on MMP-1 (read-out: IC50 MMP-1), less than 4.00; on MMP-3 (read-out: IC50 MMP-3), 6.08; at MMP-12 [3] (setting [4]), less than 4.00. The pIC50 at MMP-13 (setting [5]) was 9.74.
For `COc1cccc(COC(=O)c2cc3c(=O)n(Cc4ccc(-c5nn[nH]n5)cc4)c(=O)[nH]c3s2)c1` [Example 3, 2,4-Dioxo-3-[4-(2H-tetrazol-5-yl)-benzyl]-1,2,3,4-tetrahydro-thieno[2,3-d]pyrimidine-6-carboxylic acid 3-methoxy-benzyl ester], the pIC50 on MMP-2 (read-out: IC50 MMP-2) is less than 4.00; at MMP-14 (read-out: IC50 MMP-14) it was less than 4.00; on MMP-9 (read-out: IC50 MMP-9), less than 4.00; on MMP-1 (read-out: IC50 MMP-1), less than 4.00; at MMP-3 (read-out: IC50 MMP-3), 6.80; on MMP-12 [3] (setting [4]), 5.47. Also, the pIC50 at MMP-13 (setting [5]) is 8.92.
For `O=C(OCc1ccccc1)c1ccc2[nH]c(=O)n(Cc3ccccc3)c(=O)c2c1` [Example 4, 3-Benzyl-2,4-dioxo-1,2,3,4-tetrahydro-quinazoline-6-carboxylic acid benzyl ester], the pIC50 on MMP-2 (unit inferred, read-out: Activities measured by TPL assays, MMP-2) was less than 4.00; on MMP-14 (unit inferred, read-out: Activities measured by TPL assays, MMP-14), less than 4.00; at MMP-7 (unit inferred, read-out: Activities measured by TPL assays, MMP-7), less than 4.52; on MMP-9 (unit inferred, read-out: Activities measured by TPL assays, MMP-9), less than 4.00; on MMP-1 (unit inferred, read-out: Activities measured by TPL assays, MMP-1), less than 4.52; at MMP-3 (unit inferred, read-out: Activities measured by TPL assays, MMP-3), less than 4.52. For the same compound, the pIC50 at MMP-13 (TPL assay, unit inferred, read-out: Activities measured by TPL assays, MMP-13) is 7.53.
As for `O=C(O)c1ccc(CNC(=O)c2cc(-c3ccc(OC(F)(F)F)cc3)cs2)cc1` [Example 5, 4-({[4-(4-Trifluoromethoxyphenyl)thien-2-yl]carboxamido}methyl) benzoic acid], the pIC50 at MMP-2 (read-out: IC50 MMP-2), on MMP-14 (read-out: IC50 MMP-14), at MMP-7 (read-out: IC50 MMP-7), at MMP-9 (read-out: IC50 MMP-9), against MMP-8 and on MMP-1 (read-out: IC50 MMP-1) was less than 4.52 throughout. The pIC50 on MMP-3 (read-out: IC50 MMP-3) was less than 4.52; at MMP-12 [3] (setting [4]) it was less than 6.40; on MMP-12 [3] (setting [6]), 7.92; at MMP-13 (setting [5]), 9.85; at MMP-13 (in presence of acetohydroxamic acid (+AH), read-out: IC50 MMP13 (+AH)) it was 7.20.
For `O=C(O)C[C@@H](NC(=O)c1cc(-c2ccc(-c3ccncc3)cc2)cs1)c1ccccc1` [Example 6, (2?)-3-({[4-1(pyridin-4-yl)phényl]-thièn-2-yl]carboxamido)(phényl)propanoic acid hydrochloride], the pIC50 at MMP-2 (read-out: IC50 MMP-2) is less than 6.41; on MMP-9 (read-out: IC50 MMP-9), less than 5.85; against MMP-8, less than 6.01; at MMP-1 (read-out: IC50 MMP-1), less than 4.00; on MMP-3 (read-out: IC50 MMP-3), less than 5.77; at MMP-12 [3] (setting [4]) it was 7.85. Besides, the pIC50 was 8.40 on MMP-12 [3] (setting [6]) and 6.57 against MMP-13.
Turning to `CN1c2ccc(C3CN(Cc4ccccc4)C(=O)CO3)cc2CS1(=O)=O` (stereo not drawn) [Example 7, 4-Benzyl-6-(1-methyl-2,2-dioxo-2,3-dihydro-1H-2λ^6-benzo[c]isothiazol-5-yl)morpholin-3-one], the results for the pIC50 at MMP-12 [3] (setting [4]), at MMP-12 [3] (setting [6]) and on MMP-13 (setting [5]) were 4.77, 6.57 and 5.44, respectively.
On to `O=C(NC[C@H]1CC[C@H](C(=O)O)CC1)c1cc(-c2ccc(-c3ccncc3)cc2)ns1` [Example 8, Trans 3-[4-(4-pyridyl)phenyl]-5-isothiazole carboxamido methyl-cyclohexane carboxylic acid, Potassium Salt], for which the pIC50 was 6.24 on MMP-12 [3] (setting [4]), 7.82 on MMP-12 [3] (setting [6]) and 5.72 at MMP-13 (setting [5]).
